Measured values as given in PubChem BioAssay AID200 (DTP/NCI, 2004).
Values joined by “and” are separate entries in the source; they are usually repeats but may differ in a detail not shown here. Equal values may be shown once. Toxic doses and inconclusive results are not listed. Rule for the calls: active = survival T/C of 150% or more; inactive = T/C below 125% in these data.

System: B6C3F1 mice, B16 melanoma ip, median survival T/C
Assay: NCI In Vivo Anticancer Drug Screen. Data for tumor model B16 Melanoma (intraperitoneal) in B6C3F1 mice
Conditions: endpoint: median survival time, higher = longer survival
Procedure, shortened: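 Tumor-bearing mice received test compound; a separate group got vehicle only. Survival was then compared, with results reported as treated over control.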

[1] = dose: 100.0 mg/kg/injection, schedule: Q01DX009 (ip), vehicle: Klucel (hydroxypropylcellulose) (HPC)
[2] = dose: 200.0 mg/kg/injection, schedule: Q01DX009 (ip), vehicle: Klucel (hydroxypropylcellulose) (HPC)
[3] = dose: 400.0 mg/kg/injection, schedule: Q01DX009 (ip), vehicle: Klucel (hydroxypropylcellulose) (HPC)
[4] = dose: 25.0 mg/kg/injection, schedule: Q01DX009 (ip), vehicle: saline with Tween-80
[5] = dose: 50.0 mg/kg/injection, schedule: Q01DX009 (ip), vehicle: saline with Tween-80
[6] = dose: 100.0 mg/kg/injection, schedule: Q01DX009 (ip), vehicle: saline with Tween-80
[7] = dose: 200.0 mg/kg/injection, schedule: Q01DX009 (ip), vehicle: saline with Tween-80
[8] = dose: 25.0 mg/kg/injection, schedule: Q01DX009 (ip), vehicle: Klucel (hydroxypropylcellulose) (HPC)
[9] = dose: 50.0 mg/kg/injection, schedule: Q01DX009 (ip), vehicle: Klucel (hydroxypropylcellulose) (HPC)
[10] = dose: 12.5 mg/kg/injection, schedule: Q01DX009 (ip), vehicle: saline with Tween-80
[11] = dose: 12.5 mg/kg/injection, schedule: Q01DX009 (ip), vehicle: saline
[12] = dose: 25.0 mg/kg/injection, schedule: Q01DX009 (ip), vehicle: saline
[13] = dose: 50.0 mg/kg/injection, schedule: Q01DX009 (ip), vehicle: saline
[14] = dose: 100.0 mg/kg/injection, schedule: Q01DX009 (ip), vehicle: saline
[15] = dose: 200.0 mg/kg/injection, schedule: Q01DX009 (ip), vehicle: saline
[16] = dose: 3.12 mg/kg/injection, schedule: Q01DX009 (ip), vehicle: saline
[17] = dose: 6.25 mg/kg/injection, schedule: Q01DX009 (ip), vehicle: saline
[18] = dose: 0.25 mg/kg/injection, schedule: Q01DX009 (ip), vehicle: Klucel (hydroxypropylcellulose) (HPC)
[19] = dose: 0.5 mg/kg/injection, schedule: Q01DX009 (ip), vehicle: Klucel (hydroxypropylcellulose) (HPC)
[20] = dose: 1.0 mg/kg/injection, schedule: Q01DX009 (ip), vehicle: Klucel (hydroxypropylcellulose) (HPC)

Measured: T/C

CC(C)(C)OC(=O)NC(Cc1cnc[nH]1)C(=O)O (stereo not given)
inactive: [1] 97 % of control | [2] 94 % of control | [3] 106 % of control

O=C1O/C(=C2\OCc3ccccc32)c2ccccc21
inactive: [4] 115 % of control | [5] 119 % of control | [6] 96 % of control | [7] 102 % of control

Cc1ccc(N=NN(C)C)cc1
inactive: [4] 100 % of control | [5] 110 % of control | [6] 107 % of control

CS(=O)(=O)OCCn1c(=O)n(CCOS(C)(=O)=O)c(=O)n(CCOS(C)(=O)=O)c1=O
inactive: [1] 97 % of control | [2] 95 % of control | [3] 86 % of control

Cn1c2ccccc2c(=O)c2c(O)cc3c(c21)C=CC(C)(C)O3
inactive: [8] 86 % of control | [9] 89 % of control | [1] 96 % of control

O=NNc1ccc(Cl)cn1
inactive: dose: 1.56 mg/kg/injection, schedule: Q01DX009 (ip), vehicle: water 118 % of control | dose: 3.13 mg/kg/injection, schedule: Q01DX009 (ip), vehicle: water 107 % of control | dose: 6.25 mg/kg/injection, schedule: Q01DX009 (ip), vehicle: water 115 % of control
active: dose: 12.5 mg/kg/injection, schedule: Q01DX009 (ip), vehicle: water 166 % of control and 168 % of control

Cc1ccc(C(=Nc2ccccc2)N=P(c2ccccc2)(c2ccccc2)c2ccccc2)cc1
inactive: [10] 94 % of control | [4] 114 % of control | [5] 99 % of control

N#Cc1ccc(NC(=O)Nc2nccs2)cc1
active: dose: 100.0 mg/kg/injection, schedule: Q01DX009 (ip), vehicle: distilled water + Tween-80 150 % of control

CCCCCC#CC1OC12CCCCC2 (stereo not given)
inactive: [10] 100 % of control | [11] 99 % of control | [4] 100 % of control | [12] 105 % of control | [5] 108 % of control | [13] 104 % of control | [6] 100 % of control | [14] 97 % of control | [7] 93 % of control | [15] 95 % of control

c1ccc2c3c(c4c(c2c1)CN(C1CCCCC1)CO4)OCN(C1CCCCC1)C3
inactive: dose: 3.12 mg/kg/injection, schedule: Q01DX009 (ip), vehicle: other 92 % of control | dose: 6.25 mg/kg/injection, schedule: Q01DX009 (ip), vehicle: other 89 % of control

O=C1C(O)=C(c2ccccc2)C(=O)C(O)=C1c1ccccc1
inactive: [16] 109 % of control | [17] 100 % of control | [11] 91 % of control and 101 % of control | [12] 109 % of control and 117 % of control | [13] 108 % of control and 112 % of control

Nc1nc(-c2ccc([N+](=O)[O-])cc2)c(Br)c(=O)[nH]1
inactive: [4] 98 % of control | [5] 107 % of control | [6] 107 % of control | [7] 95 % of control

COc1cc(Cl)ccc1C
inactive: dose: 9.37 mg/kg/injection, schedule: Q01DX009 (ip), vehicle: Klucel (hydroxypropylcellulose) (HPC) 100 % of control | dose: 18.75 mg/kg/injection, schedule: Q01DX001 (ip), vehicle: Klucel (hydroxypropylcellulose) (HPC) 109 % of control | dose: 18.75 mg/kg/injection, schedule: Q01DX009 (ip), vehicle: Klucel (hydroxypropylcellulose) (HPC) 100 % of control | dose: 37.5 mg/kg/injection, schedule: Q01DX001 (ip), vehicle: Klucel (hydroxypropylcellulose) (HPC) 107 % of control | dose: 37.5 mg/kg/injection, schedule: Q01DX009 (ip), vehicle: Klucel (hydroxypropylcellulose) (HPC) 98 % of control | dose: 75.0 mg/kg/injection, schedule: Q01DX001 (ip), vehicle: Klucel (hydroxypropylcellulose) (HPC) 115 % of control | dose: 75.0 mg/kg/injection, schedule: Q01DX009 (ip), vehicle: Klucel (hydroxypropylcellulose) (HPC) 101 % of control | dose: 150.0 mg/kg/injection, schedule: Q01DX001 (ip), vehicle: Klucel (hydroxypropylcellulose) (HPC) 110 % of control | dose: 150.0 mg/kg/injection, schedule: Q01DX009 (ip), vehicle: Klucel (hydroxypropylcellulose) (HPC) 100 % of control | dose: 300.0 mg/kg/injection, schedule: Q01DX001 (ip), vehicle: Klucel (hydroxypropylcellulose) (HPC) 111 % of control | dose: 300.0 mg/kg/injection, schedule: Q01DX009 (ip), vehicle: Klucel (hydroxypropylcellulose) (HPC) 95 % of control

CC(=O)Nc1ccc(N=Nc2c(O)c(S(=O)(=O)O)cc3cc(S(=O)(=O)O)ccc23)cc1
inactive: [5] 111 % of control | [6] 100 % of control | [7] 98 % of control

O=C(O)c1cc(C(=O)O)c(C(=O)O)cc1C(=O)O.[NH2-].[NH2-].[NH2-].[NH2-].[Pt+2].[Pt+2]
active: dose: 8.0 mg/kg/injection, schedule: Q01DX009 (ip), vehicle: water 154 % of control
inactive: dose: 0.12 mg/kg/injection, schedule: Q01DX009 (ip), vehicle: water 110 % of control | dose: 0.25 mg/kg/injection, schedule: Q01DX009 (ip), vehicle: water 104 % of control | dose: 0.5 mg/kg/injection, schedule: Q01DX009 (ip), vehicle: water 109 % of control and 110 % of control | dose: 1.0 mg/kg/injection, schedule: Q01DX009 (ip), vehicle: water 114 % of control and 118 % of control

CC(C)(C)OC(=O)NC(Cc1c[nH]c2ccccc12)C(=O)ON1C(=O)CCC1=O (stereo not given)
inactive: [10] 89 % of control | [4] 100 % of control | [5] 88 % of control

ClCCCCCCCCCCc1ccccc1
inactive: dose: 12.5 mg/kg/injection, schedule: Q01DX009 (ip), vehicle: Klucel (hydroxypropylcellulose) (HPC) 91 % of control | [8] 94 % of control | [9] 91 % of control | [1] 93 % of control | [2] 90 % of control | [3] 89 % of control

FC(F)(F)c1ccc2c(c1)N(CCCN1CCN(CCN3CCCCC3)CC1)c1ccccc1S2
inactive: dose: 0.78 mg/kg/injection, schedule: Q01DX009 (ip), vehicle: saline 94 % of control | dose: 1.56 mg/kg/injection, schedule: Q01DX009 (ip), vehicle: saline 109 % of control and 89 % of control | [16] 118 % of control and 99 % of control | [17] 99 % of control and 101 % of control | [11] 98 % of control | [12] 94 % of control

CC1CCC(NC(=O)N(CCCl)N=O)CC1 (stereo not given)
inactive: dose: 2.5 mg/kg/injection, schedule: Q01DX005 (ip), vehicle: other 114 % of control | dose: 2.5 mg/kg/injection, schedule: Q01DX005 (iv), vehicle: other 107 % of control | dose: 4.0 mg/kg/injection, schedule: Q04DX002 (ip), vehicle: other 98 % of control | dose: 8.0 mg/kg/injection, schedule: Q04DX002 (ip), vehicle: other 113 % of control | dose: 10.0 mg/kg/injection, schedule: Q01DX001 (iv), vehicle: other 111 % of control | dose: 32.0 mg/kg/injection, schedule: Q04DX002 (ip), vehicle: other 76 % of control
active: dose: 5.0 mg/kg/injection, schedule: Q01DX005 (ip), vehicle: other 151 % of control | dose: 10.0 mg/kg/injection, schedule: Q01DX005 (ip), vehicle: other 294 % of control | dose: 16.0 mg/kg/injection, schedule: Q04DX002 (ip), vehicle: other 165 % of control | dose: 20.0 mg/kg/injection, schedule: Q01DX001 (ip), vehicle: other 162 % of control | dose: 20.0 mg/kg/injection, schedule: Q01DX001 (iv), vehicle: other 168 % of control | dose: 40.0 mg/kg/injection, schedule: Q01DX001 (ip), vehicle: other 223 % of control | dose: 40.0 mg/kg/injection, schedule: Q01DX001 (iv), vehicle: other 222 % of control

Cc1c2ccncc2c(COC2OC(CO)C(O)C2O)c2c3ccccc3n(C)c12 (stereo not given)
inactive: [11] 123 % of control | [14] 98 % of control | [15] 121 % of control

O=c1ccc(N=Nc2ccccc2)ccc1Cl
inactive: [18] 98 % of control | [19] 93 % of control | [20] 100 % of control

COc1ccc([C@@]23Oc4cc(OC)cc(OC)c4[C@]2(O)[C@H](O)[C@H](C(=O)N(C)C)[C@H]3c2ccccc2)cc1
inactive: [18] 97 % of control | [19] 119 % of control and 91 % of control and 106 % of control | [20] 112 % of control and 117 % of control | dose: 2.0 mg/kg/injection, schedule: Q01DX009 (ip), vehicle: Klucel (hydroxypropylcellulose) (HPC) 103 % of control and 104 % of control and 106 % of control

CCCC(NC(=O)OCc1ccccc1)C(=O)NC(Cc1c[nH]c2ccccc12)C(=O)O (stereo not given)
inactive: [1] 107 % of control | [2] 99 % of control | [3] 100 % of control
